Data on 1 compound can be found in patent US6696064B2 (priority 2000, dated 2004).

Structures are written as SMILES.

The conditions of data set [1]: cited from earlier work.
For a further data set, the system named is healthy volunteers. Particulars: 300 mg single dose i.v. infusion, eleven healthy volunteers; cited from earlier work.
The test system of the next data set is normal rat brain. Particulars: in vivo.

Turning to `CCN(CC)CCCC(C)Nc1ccnc2cc(Cl)ccc12` (stereo not drawn) [chloroquine], in data set [1] (after oral administration), the “time to maximum blood levels” value is 3 to 5 h. Further, in data set [1] (in vivo), the “amounts deposited in brain, times smaller than in other body tissues” value was 7 to 70 times. Moreover, in the data set on healthy volunteers, the “effects on the electrocardiogram, mean arterial blood pressure, or pulse rate” value is recorded as “no effects were seen” and the “side effects during i.v. infusion” value is “only of subjective side effects”. In the data set on normal rat brain, the “effect of chloroquine on histological brain damage in rats that received DT” value is “did not reduce the histological rain damage” and the “effect of systemic chloroquine on brain damage caused by Tf-CRM107” value is “completely blocked the brain damage”.
